Values of other authors, collected in patent US8329435B2, “Methods for improved uptake of biological molecules” (American Symbolic, LLC, priority 2007, dated 2012).

Settings: unmodified glutathione

N[C@@H](CCC(=O)N[C@@H](CS)C(=O)NCC(=O)O)C(=O)O [glutathione]
half-life of glutathione in the blood (blood): around 120 seconds
half-life in the blood stream (blood stream): about a minute and a half
